Columns and labels:
[1] = biological target: Voltage-gated inwardly rectifying potassium channel KCNH2 (Homo sapiens, UniProt Q12809); type: functional; settings: read-out: AC50
[2] = biological target: T1, Alpha-1A adrenergic receptor (Homo sapiens, UniProt P35348); type: functional, cell-based
T1 sequence (P35348 whole entry): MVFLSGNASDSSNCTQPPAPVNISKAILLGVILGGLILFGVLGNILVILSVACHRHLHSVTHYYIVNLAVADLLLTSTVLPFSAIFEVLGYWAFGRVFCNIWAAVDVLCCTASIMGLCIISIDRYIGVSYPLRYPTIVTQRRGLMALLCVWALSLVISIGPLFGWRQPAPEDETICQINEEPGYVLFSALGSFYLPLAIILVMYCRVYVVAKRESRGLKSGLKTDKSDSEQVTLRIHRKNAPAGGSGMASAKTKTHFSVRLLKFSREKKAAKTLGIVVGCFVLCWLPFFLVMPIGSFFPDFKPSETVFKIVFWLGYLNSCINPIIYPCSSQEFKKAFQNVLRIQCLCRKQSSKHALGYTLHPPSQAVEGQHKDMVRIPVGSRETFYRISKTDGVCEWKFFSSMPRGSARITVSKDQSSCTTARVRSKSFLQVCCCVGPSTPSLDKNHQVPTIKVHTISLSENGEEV

Prothrombin = Prothrombin (Homo sapiens, UniProt P00734); type: functional
[3] = biological target: 5-hydroxytryptamine receptor 2B (Homo sapiens, UniProt P41595); type: functional, cell-based
Sequence of 5-hydroxytryptamine receptor 2B (P41595 whole entry): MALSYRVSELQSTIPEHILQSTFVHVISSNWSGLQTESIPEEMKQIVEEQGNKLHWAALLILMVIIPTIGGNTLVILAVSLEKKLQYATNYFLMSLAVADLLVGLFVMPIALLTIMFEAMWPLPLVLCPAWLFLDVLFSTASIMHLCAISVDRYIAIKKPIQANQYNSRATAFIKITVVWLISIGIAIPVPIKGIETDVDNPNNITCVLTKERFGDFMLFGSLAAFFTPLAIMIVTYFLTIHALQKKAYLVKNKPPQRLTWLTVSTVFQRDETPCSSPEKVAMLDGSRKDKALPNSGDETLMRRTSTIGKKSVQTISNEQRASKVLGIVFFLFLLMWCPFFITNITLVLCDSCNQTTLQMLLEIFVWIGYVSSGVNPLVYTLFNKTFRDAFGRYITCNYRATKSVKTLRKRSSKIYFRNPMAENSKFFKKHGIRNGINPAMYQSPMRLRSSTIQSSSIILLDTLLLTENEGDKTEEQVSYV

[4] = biological target: T2, Alpha-2A adrenergic receptor (Homo sapiens, UniProt P08913)
T2 sequence (P08913 whole entry): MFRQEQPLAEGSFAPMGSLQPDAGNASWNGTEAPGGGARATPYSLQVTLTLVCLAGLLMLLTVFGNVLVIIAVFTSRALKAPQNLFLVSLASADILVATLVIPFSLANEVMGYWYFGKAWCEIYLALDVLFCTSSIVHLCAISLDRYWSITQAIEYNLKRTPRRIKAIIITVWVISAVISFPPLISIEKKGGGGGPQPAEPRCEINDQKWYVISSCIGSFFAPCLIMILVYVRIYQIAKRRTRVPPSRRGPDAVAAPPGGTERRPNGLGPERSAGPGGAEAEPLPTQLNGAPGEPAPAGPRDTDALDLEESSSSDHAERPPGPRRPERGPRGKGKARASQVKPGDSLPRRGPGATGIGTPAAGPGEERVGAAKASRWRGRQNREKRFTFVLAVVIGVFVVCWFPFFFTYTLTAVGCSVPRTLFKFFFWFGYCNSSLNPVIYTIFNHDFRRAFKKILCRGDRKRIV

D(3) dopamine receptor = D(3) dopamine receptor (Homo sapiens, UniProt P35462)
Sequence of D(3) dopamine receptor (P35462 whole entry): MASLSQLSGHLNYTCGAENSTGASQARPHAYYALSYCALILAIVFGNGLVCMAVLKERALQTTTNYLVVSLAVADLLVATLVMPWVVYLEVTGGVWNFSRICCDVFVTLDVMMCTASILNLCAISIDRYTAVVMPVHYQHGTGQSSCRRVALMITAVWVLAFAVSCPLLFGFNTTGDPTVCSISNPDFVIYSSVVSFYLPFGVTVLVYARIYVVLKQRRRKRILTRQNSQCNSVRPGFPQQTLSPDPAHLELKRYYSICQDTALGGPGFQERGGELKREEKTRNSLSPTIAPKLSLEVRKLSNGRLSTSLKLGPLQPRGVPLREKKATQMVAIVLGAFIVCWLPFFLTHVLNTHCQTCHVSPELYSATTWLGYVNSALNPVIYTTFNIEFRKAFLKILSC

Adenosine receptor A3 = biological target: T3, Adenosine receptor A3 (Homo sapiens, UniProt P0DMS8)
T3 sequence (P0DMS8 whole entry): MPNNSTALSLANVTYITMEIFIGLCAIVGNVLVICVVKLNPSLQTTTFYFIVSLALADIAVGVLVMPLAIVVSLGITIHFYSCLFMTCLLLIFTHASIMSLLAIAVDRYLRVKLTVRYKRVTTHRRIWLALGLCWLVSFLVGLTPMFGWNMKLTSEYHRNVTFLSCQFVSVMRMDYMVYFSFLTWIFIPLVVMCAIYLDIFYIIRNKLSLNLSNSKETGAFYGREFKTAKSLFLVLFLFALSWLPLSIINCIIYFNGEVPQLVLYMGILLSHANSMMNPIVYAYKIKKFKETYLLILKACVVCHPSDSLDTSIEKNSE

Thromboxane A2 receptor = biological target: T4, Thromboxane A2 receptor (Homo sapiens, UniProt P21731); type: functional, cell-based
T4 sequence (P21731 whole entry): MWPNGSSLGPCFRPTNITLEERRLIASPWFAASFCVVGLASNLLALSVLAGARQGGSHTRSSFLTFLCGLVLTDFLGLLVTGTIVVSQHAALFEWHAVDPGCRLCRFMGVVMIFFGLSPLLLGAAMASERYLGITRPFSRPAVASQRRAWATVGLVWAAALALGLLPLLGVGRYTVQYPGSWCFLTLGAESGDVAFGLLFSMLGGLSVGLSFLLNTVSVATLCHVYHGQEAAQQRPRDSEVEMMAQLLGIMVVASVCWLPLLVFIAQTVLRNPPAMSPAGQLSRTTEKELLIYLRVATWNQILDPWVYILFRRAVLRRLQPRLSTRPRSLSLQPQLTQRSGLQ

Histamine H3 receptor = Histamine H3 receptor (Homo sapiens, UniProt Q9Y5N1)
Sequence of Histamine H3 receptor (Q9Y5N1 whole entry): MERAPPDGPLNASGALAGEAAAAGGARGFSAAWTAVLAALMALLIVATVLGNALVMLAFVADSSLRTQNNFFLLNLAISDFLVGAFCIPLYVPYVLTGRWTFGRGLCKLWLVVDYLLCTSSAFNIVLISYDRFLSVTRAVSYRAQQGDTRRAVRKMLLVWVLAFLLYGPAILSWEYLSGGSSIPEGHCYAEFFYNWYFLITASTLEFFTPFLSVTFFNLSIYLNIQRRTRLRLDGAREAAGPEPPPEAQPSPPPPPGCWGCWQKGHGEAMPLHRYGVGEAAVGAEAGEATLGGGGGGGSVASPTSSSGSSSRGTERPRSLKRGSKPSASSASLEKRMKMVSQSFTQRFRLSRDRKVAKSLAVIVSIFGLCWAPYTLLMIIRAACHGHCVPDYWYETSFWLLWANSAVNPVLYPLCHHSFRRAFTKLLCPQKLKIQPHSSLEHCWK

[5] = biological target: T5, Prostaglandin G/H synthase 1 (Homo sapiens, UniProt P23219); type: functional
T5 sequence (P23219 whole entry): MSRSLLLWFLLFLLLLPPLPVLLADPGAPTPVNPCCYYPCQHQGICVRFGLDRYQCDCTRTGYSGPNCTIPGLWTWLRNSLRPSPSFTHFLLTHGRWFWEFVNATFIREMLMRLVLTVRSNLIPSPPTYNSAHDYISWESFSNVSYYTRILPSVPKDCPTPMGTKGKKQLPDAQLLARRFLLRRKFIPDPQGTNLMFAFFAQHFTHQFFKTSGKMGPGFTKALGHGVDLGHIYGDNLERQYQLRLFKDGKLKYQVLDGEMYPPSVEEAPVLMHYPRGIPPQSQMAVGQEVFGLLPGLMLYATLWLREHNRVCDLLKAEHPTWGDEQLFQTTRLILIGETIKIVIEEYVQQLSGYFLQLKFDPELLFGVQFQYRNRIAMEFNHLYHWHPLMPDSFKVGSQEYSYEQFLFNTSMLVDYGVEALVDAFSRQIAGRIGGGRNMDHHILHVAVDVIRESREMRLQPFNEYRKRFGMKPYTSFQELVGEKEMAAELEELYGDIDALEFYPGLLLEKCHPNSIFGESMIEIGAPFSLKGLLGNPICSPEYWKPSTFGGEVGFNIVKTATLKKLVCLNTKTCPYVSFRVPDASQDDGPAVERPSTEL

[6] = biological target: T5, Prostaglandin G/H synthase 1; type: functional; remark: listed apart in the source
Mu-type opioid receptor = Mu-type opioid receptor (Homo sapiens, UniProt P35372)
Sequence of Mu-type opioid receptor (P35372 whole entry): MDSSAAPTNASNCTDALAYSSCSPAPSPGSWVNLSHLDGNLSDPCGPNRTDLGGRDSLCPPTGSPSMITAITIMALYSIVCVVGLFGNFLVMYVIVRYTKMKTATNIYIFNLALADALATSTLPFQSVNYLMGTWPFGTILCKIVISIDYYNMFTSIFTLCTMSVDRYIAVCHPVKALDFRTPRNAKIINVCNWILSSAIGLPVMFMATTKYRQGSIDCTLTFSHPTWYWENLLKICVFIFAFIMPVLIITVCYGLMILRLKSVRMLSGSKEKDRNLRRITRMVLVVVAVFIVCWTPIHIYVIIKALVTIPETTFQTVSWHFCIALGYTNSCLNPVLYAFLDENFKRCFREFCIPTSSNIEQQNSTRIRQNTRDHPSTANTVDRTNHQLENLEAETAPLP

D(1A) dopamine receptor = D(1A) dopamine receptor (Homo sapiens, UniProt P21728)
Sequence of D(1A) dopamine receptor (P21728 whole entry): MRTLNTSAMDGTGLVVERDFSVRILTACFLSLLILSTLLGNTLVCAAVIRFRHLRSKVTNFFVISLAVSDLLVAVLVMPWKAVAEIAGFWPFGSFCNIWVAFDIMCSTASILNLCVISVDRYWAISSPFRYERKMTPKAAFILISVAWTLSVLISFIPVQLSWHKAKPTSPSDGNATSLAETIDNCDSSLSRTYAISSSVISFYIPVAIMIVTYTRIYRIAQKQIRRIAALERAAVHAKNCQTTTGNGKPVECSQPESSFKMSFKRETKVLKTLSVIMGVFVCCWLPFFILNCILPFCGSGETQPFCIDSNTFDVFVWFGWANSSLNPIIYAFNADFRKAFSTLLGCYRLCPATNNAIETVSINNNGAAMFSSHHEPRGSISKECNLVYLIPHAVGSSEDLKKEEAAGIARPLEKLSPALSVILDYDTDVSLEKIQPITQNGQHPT

[7] = biological target: T6, Muscarinic acetylcholine receptor M2 (Homo sapiens, UniProt P08172)
T6 sequence (P08172 whole entry): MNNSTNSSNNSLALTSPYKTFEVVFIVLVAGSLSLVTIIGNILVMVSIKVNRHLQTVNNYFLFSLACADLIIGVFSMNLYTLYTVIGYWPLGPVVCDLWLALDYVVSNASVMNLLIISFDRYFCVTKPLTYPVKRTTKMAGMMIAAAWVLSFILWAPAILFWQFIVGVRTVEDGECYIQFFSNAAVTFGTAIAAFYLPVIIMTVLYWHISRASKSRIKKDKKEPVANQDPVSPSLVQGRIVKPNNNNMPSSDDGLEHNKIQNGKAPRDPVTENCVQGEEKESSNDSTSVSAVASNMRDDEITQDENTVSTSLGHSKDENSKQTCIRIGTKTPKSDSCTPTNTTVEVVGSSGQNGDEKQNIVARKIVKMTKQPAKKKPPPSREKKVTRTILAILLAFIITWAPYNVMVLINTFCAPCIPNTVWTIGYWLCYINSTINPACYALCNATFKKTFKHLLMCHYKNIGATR
Further: assay procedure not described here.

Sequence of Voltage-gated inwardly rectifying potassium channel KCNH2 (Q12809 whole entry): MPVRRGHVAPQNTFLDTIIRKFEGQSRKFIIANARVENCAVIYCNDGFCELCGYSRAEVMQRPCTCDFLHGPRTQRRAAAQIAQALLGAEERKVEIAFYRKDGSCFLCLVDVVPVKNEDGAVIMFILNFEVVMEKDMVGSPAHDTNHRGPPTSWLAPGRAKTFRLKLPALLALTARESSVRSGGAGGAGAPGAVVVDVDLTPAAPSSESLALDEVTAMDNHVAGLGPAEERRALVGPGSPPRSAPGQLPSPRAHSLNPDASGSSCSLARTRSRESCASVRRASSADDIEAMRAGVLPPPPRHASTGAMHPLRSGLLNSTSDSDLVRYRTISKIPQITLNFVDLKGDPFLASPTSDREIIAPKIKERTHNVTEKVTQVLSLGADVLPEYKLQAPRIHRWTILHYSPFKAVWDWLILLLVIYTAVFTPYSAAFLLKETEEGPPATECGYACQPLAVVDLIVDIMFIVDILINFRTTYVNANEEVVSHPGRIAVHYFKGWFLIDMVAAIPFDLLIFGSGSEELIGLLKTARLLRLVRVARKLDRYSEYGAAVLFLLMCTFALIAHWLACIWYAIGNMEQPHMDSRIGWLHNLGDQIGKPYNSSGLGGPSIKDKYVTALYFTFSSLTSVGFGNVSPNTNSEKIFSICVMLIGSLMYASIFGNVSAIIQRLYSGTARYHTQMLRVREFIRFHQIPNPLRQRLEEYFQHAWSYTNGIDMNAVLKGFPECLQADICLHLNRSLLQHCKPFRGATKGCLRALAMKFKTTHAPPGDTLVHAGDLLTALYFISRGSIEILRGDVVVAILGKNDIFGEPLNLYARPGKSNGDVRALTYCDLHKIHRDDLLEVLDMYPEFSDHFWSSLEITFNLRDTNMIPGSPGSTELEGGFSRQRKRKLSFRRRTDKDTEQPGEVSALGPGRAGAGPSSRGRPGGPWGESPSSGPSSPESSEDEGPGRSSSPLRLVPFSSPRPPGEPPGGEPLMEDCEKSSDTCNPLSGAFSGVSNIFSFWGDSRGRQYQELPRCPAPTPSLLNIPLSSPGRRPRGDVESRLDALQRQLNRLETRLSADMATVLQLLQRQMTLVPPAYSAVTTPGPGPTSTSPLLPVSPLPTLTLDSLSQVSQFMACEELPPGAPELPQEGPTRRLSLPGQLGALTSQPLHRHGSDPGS

SMILES | AC50 [1] [µM] | AC50 [2] [µM] | AC50 (Prothrombin) [µM] | AC50 [3] [µM] | AC50 [4] [µM] | AC50 (D(3) dopamine receptor) [µM] | AC50 (Adenosine receptor A3) [µM] | AC50 (Thromboxane A2 receptor) [µM] | AC50 (Histamine H3 receptor) [µM] | AC50 [5] [µM] | AC50 [6] [µM] | AC50 (Mu-type opioid receptor) [µM] | AC50 (D(1A) dopamine receptor) [µM] | AC50 [7] [µM]
C=C1C[C@@H]2[C@H](CC[C@]3(C)C(=O)CC[C@@H]23)[C@@]2(C)C=CC(=O)C=C12 [EXEMESTANE] | > 30 |  |  |  |  |  |  |  |  |  |  |  |  | 
CC(C(O)c1ccc(O)cc1)N1CCC(Cc2ccccc2)CC1 (stereo not given) [IFENPRODIL] | 0.67 |  |  |  |  |  |  |  |  |  |  |  |  | 
Oc1c(I)cc(I)c2cccnc12 [IODOQUINOL] | > 30 | > 30 | > 30 | > 30 | > 30 | > 30 | > 3 | > 30 | > 30 | > 30 | > 30 | 8.91 | > 30 | > 10
CC(=O)N(CC(O)CO)c1c(I)c(C(=O)NCC(O)CO)c(I)c(C(=O)NCC(O)CO)c1I (stereo not given) [IOHEXOL] | > 30 |  |  |  |  |  |  |  |  |  |  |  |  | 
CN(CCCN1c2ccccc2CCc2ccccc21)CC(=O)c1ccc(Cl)cc1 [LOFEPRAMINE] | 3.3 |  |  |  |  |  |  |  |  |  |  |  |  | 
CC(=O)O[C@]1(C(C)=O)CC[C@H]2[C@@H]3C[C@H](C)C4=CC(=O)CC[C@]4(C)[C@H]3CC[C@@]21C [MEDROXYPROGESTERONE ACETATE] | > 30 | > 30 | > 30 | > 30 | > 30 | > 30 |  | > 30 | > 30 | > 10 | > 30 | > 30 | > 30 | 21.2
Cn1cc[nH]c1=S [METHIMAZOLE] |  | > 30 | > 30 | > 30 | > 30 | > 30 | > 30 | > 30 | > 30 | 0.541 | > 30 | > 30 | > 30 | > 30
CO[C@@]12[C@H](COC(N)=O)C3=C(C(=O)C(C)=C(N)C3=O)N1C[C@@H]1N[C@@H]12 [MITOMYCIN] |  | > 30 | > 30 | > 30 | > 30 | > 30 | > 30 | > 30 | > 30 | > 30 | > 30 | > 30 | > 30 | > 30
CN(C/C=C/c1ccccc1)Cc1cccc2ccccc12 [NAFTIFINE] | 2.02 |  |  |  |  |  |  |  |  |  |  |  |  | 
CC(C)NCC1CCc2cc(CO)c([N+](=O)[O-])cc2N1 (stereo not given) [OXAMNIQUINE] | > 30 |  |  |  |  |  |  |  |  |  |  |  |  | 
Oc1cccc2cccnc12 [OXYQUINOLINE] |  | 20.8 | > 30 | > 30 | > 30 | > 30 | > 30 | > 30 | > 30 | > 30 | > 30 | > 30 | > 30 | > 30
CN(C)CCCN1c2ccccc2Sc2ccccc21 [PROMAZINE] | 8.1 |  |  |  |  |  |  |  |  |  |  |  |  | 
O=P(O)(O)C(O)(Cc1cccnc1)P(=O)(O)O [RISEDRONIC ACID] | > 30 |  |  |  |  |  |  |  |  |  |  |  |  | 
CC(=O)N[C@H]1[C@H]([C@H](O)[C@H](O)CO)OC(C(=O)O)=C[C@@H]1N=C(N)N [ZANAMIVIR] | > 30 |  |  |  |  |  |  |  |  |  |  |  |  | 

— ChEMBL document CHEMBL5291721, “A preclinical secondary pharmacology resource illuminates target-adverse drug reaction associations of marketed drugs” (Nat Commun, 2023)
